The record followed here is patent publication US20260327244A1, “PYRIDO[4,3-D]PYRIMIDINE COMPOUNDS” (Pfizer Inc., priority 2022, published 2026).

For one assay, the target named is G12D KRAS (aa1-185) (Homo sapiens, UniProt P01116, G12D). The experiment in a line: biochemical.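 Also: surface plasmon resonance at 10 °C, KRAS captured on a streptavidin chip in GDP-containing buffer, compound dilution series injected, blank streptavidin surface as reference.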
The target of assay [1] is T1, wild-type (WT) KRAS (aa1-185) (Homo sapiens, UniProt P01116).
T1 construct: wild-type (WT) KRAS (aa1-185)
T1 sequence (P01116 1-185 isoform P01116-2): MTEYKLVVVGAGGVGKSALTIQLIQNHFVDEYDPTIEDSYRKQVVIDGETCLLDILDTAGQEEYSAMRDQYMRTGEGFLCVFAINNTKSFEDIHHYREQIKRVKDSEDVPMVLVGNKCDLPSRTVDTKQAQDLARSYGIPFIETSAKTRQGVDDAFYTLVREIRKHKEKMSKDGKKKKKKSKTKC
The experiment in a line: KRAS Surface Plasma Resonance (SPR) binding assay, WT KRAS. Conditions: SPR at 10 °C, geometric mean when tested more than once. The source says:
No additional regeneration was used.
Compound dissociation was monitored for at least 3600 seconds. […] No additional regeneration was used.

For another assay, the target named is G12C KRAS (aa2-184) (Homo sapiens, UniProt P01116, G12C). The experiment in a line: biochemical.
Chain of G12C KRAS (aa2-184) (P01116 2-184 isoform P01116-2 G12C): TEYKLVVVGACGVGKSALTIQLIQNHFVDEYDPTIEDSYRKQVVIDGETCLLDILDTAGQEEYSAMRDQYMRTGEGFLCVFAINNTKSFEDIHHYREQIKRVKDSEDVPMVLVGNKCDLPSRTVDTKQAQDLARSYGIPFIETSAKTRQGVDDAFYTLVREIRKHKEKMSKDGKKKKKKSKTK
In the next assay the target is G12V KRAS (aa2-184) (Homo sapiens, UniProt P01116, G12V). Description: biochemical.
Chain of G12V KRAS (aa2-184) (P01116 2-184 isoform P01116-2 G12V): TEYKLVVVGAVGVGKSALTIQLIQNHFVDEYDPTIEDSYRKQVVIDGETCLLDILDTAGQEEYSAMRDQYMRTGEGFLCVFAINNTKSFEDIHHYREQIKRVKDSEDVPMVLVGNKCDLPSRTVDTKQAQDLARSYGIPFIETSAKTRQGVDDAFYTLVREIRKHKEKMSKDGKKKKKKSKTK

The structures appear in SMILES notation.

Chain of G12D KRAS (aa1-185) (P01116 1-185 isoform P01116-2 G12D): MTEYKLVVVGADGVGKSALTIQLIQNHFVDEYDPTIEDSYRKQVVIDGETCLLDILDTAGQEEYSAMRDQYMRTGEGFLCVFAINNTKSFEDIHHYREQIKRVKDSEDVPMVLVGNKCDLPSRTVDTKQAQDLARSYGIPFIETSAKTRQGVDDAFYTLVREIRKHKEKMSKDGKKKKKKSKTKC
Procedure for G12C KRAS (aa2-184): (§1) SPR assay was used to measure the kinetic binding constant (KD) of Examples of the present invention.
(§2) The binding affinity and kinetics of Examples of the present invention were measured by Surface Plasmon Resonance (SPR) using Biacore 8K or 8K+ (Cytiva, Marlborough, MA) instruments. Recombinant, C-terminal site-specific biotinylated, wild-type (WT) KRAS (aa1-185), G12D KRAS (aa1-185), G12C KRAS (aa2-184), G12V KRAS (aa2-184), WT HRAS (aa2-184) and WT NRAS (aa2-185) proteins purified in presence of 1 μM GDP were used in these experiments. Binding measurements were performed parallelly in sets of either WT/G12D/G12C/G12V KRAS or WT K/H/N RAS proteins.
(§3) Biacore instrument was desorbed and docked with a Series S Sensor Chip SA. The proteins were diluted to 50 μg/mL with the assay buffer (50 mM HEPES, 150 mM NaCl, 10 μM GDP, 5 mM MgCl2, 0.5 mM TCEP, 5% glycerol, 0.02% Tween-20, 2% DMSO, pH 7.2) and immobilized at a flow rate of 3 μL/min at 10° C. with a contact time of 15 min. to capture ~3000-4000 RUs of proteins on the surface. The functionalized surface was then equilibrated with assay buffer for approximately 1 hour. Un-functionalized SA surfaces with no immobilized protein served as reference for binding kinetic analysis. Compound binding kinetics were measured in either multi-cycle or single-cycle kinetic format.
(§4) A 2-fold, 10-point serial dilution of test compounds was set-up in a 96-well microplate (Greiner; Cat #650101) with a top concentration of either 10 μM or 100 μM. Binding kinetics was measured at 10° C. by injecting serial dilution of compounds onto both reference and RAS immobilized channels at a flow rate of 100 μL/min and association time of 90 seconds. Compound dissociation was monitored for at least 400 seconds during each cycle. No additional regeneration was used. DMSO calibration curve was obtained before and after compound analysis by injecting 0-4% of DMSO in assay buffer. A suitable compound with known affinity and kinetics was tested once in every experiment as a positive control to assess activity of the captured protein on the surface.
(§5) A 3-fold, 6-point serial dilution of compounds was set-up in a deep 96-well microplate (Greiner Bio; Cat #780201) with the highest concentration of 1 μM (concentration range: 0.004-1 μM). Binding kinetics was measured at 10° C. by injecting serial dilutions of compounds in increasing order onto reference as well as RAS immobilized channels at a flow rate of 100 μL/min and association time of 120 seconds. Compound dissociation was monitored for at least 3600 seconds. Two buffer blanks were also run in a single-cycle kinetics format before the compound run for double referencing. No additional regeneration was used. DMSO calibration curve was obtained before and after compound analysis by injecting 0-4% of DMSO in the assay buffer. A suitable compound with known affinity and kinetics was tested once in every experiment as a positive control to assess activity of the captured protein on the surface.
(§6) Both MCK and SCK data were processed and analyzed using Biacore Insight evaluation software (Cytiva, Marlborough, MA)). […] The adequateness of the fit was judged by c^2 values and the randomness of residue distribution.
(§7) A geometric mean of binding constant KD was provided when an Example was tested more than once (n is testing replicate number).
Procedure for G12D KRAS (aa1-185): as §1, §2, §3, §4, §5, §6, §7
Procedure for G12V KRAS (aa2-184): as §1, §2, §3, §4, §5, §6, §7

Regarding `C#Cc1c(F)ccc2cc(O)cc(-c3nc4c5c(nc(OC[C@@]67CCCN6C[C@H](F)C7)nc5c3F)N(CCO)CCO4)c12` [Example 26, 5-ethynyl-6-fluoro-4-[4-fluoro-2-{[(2R,7aS)-2-fluorotetrahydro-1H-pyrrolizin-7a(5H)-yl]methoxy}-10-(2-hydroxyethyl)-9,10-dihydro-8H-7-oxa-1,3,6,10-tetraazacyclohepta[1,2,3-de]naphthalen-5-yl]naphthalen-2-ol], the Kd on G12D KRAS (aa1-185) worked out at 0.046 nM; in assay [1], 0.014 nM; on G12C KRAS (aa2-184), 0.031 nM; at G12V KRAS (aa2-184), 0.117 nM.
The like results for `C#Cc1cccc2cc(O)cc(-c3ncc4c(N5C[C@H]6C[C@@H](O)[C@@H](C5)O6)nc(OC[C@@]56CCCN5C[C@H](F)C6)nc4c3F)c12` (relative stereo) [Example 18, (1R*,5R*,6R*)-3-[7-(8-ethynyl-3-hydroxynaphthalen-1-yl)-8-fluoro-2-{[(2R,7aS)-2-fluorotetrahydro-1H-pyrrolizin-7a(5H)-yl]methoxy}pyrido[4,3-d]pyrimidin-4-yl]-8-oxa-3-azabicyclo[3.2.1]octan-6-ol] were, in that order, 0.214 nM, 0.092 nM, 0.759 nM and 0.13 nM.
The like results for `C#Cc1cccc2cc(O)cc(-c3ncc4c(N5CCN(C(C)=O)[C@@H](CC#N)C5)nc(OC[C@@]56CCCN5C[C@H](F)C6)nc4c3F)c12` [Example 4, {(2S)-1-acetyl-4-[7-(8-ethynyl-3-hydroxynaphthalen-1-yl)-8-fluoro-2-{[(2R,7aS)-2-fluorotetrahydro-1H-pyrrolizin-7a(5H)-yl]methoxy}pyrido[4,3-d]pyrimidin-4-yl]piperazin-2-yl}acetonitrile] were, in that order, 14.1 nM, 0.308 nM, 1.94 nM and 3.69 nM.
The like results for `C#Cc1c(F)ccc2cccc(-c3nc4c5c(nc(OC[C@@]67CCCN6C[C@H](F)C7)nc5c3F)N3C[C@@H](O)CC[C@H]3CO4)c12` [Example 30, (8aS,11S)-5-(8-ethynyl-7-fluoronaphthalen-1-yl)-4-fluoro-2-{[(2R,7aS)-2-fluorotetrahydro-1H-pyrrolizin-7a(5H)-yl]methoxy}-8,8a,9,10,11,12-hexahydro-7-oxa-1,3,6,12a-tetraazabenzo[4,5]cyclohepta[1,2,3-de]naphthalen-11-ol] were, in that order, 0.25 nM, 2.58 nM, 1.1 nM and 0.24 nM.
`C#Cc1cccc2cc(O)cc(-c3ncc4c(N5CC[C@@](C)(CC#N)C5)nc(OC[C@@]56CCCN5C[C@H](F)C6)nc4c3F)c12` [Example 5, {(3S)-1-[7-(8-ethynyl-3-hydroxynaphthalen-1-yl)-8-fluoro-2-{[(2R,7aS)-2-fluorotetrahydro-1H-pyrrolizin-7a(5H)-yl]methoxy}pyrido[4,3-d]pyrimidin-4-yl]-3-methylpyrrolidin-3-yl}acetonitrile]: the Kd on G12D KRAS (aa1-185) was determined as 10.5 nM; in assay [1], 2.89 nM; at G12C KRAS (aa2-184), 11.4 nM; at G12V KRAS (aa2-184), 22.1 nM.
The like results for `C#Cc1cccc2cc(O)cc(-c3ncc4c(N5CC[C@@H](CC#N)C5)nc(OC[C@@]56CCCN5C[C@H](F)C6)nc4c3F)c12` [Example 6, {(3S)-1-[7-(8-ethynyl-3-hydroxynaphthalen-1-yl)-8-fluoro-2-{[(2R,7aS)-2-fluorotetrahydro-1H-pyrrolizin-7a(5H)-yl]methoxy}pyrido[4,3-d]pyrimidin-4-yl]pyrrolidin-3-yl}acetonitrile] were, in that order, 2.43 nM, 1.89 nM, 2.67 nM and 1.35 nM.

For orientation: Kd means the free concentration of one partner at which half of the binding sites on the other are occupied at equilibrium, for simple one-to-one binding. Higher therefore signals lower affinity.
